pIC50: −log10 of the molar value. Read-outs that look alike come from different tables or passages of the source.
What was measured:
pY705-STAT3 in PBMC = biological target: T1, pY705-STAT3 in PBMC (Homo sapiens, UniProt P40763); assay: MSD-pSTAT-PBMC Assay (pSTAT3, IL-6 stimulated); format: cell-based; conditions: PBMC, compound 3 hrs, then 10 ng/mL IL-6 for 10 min
T1 construct: Cryopreserved Peripheral Blood Mononuclear Cells (PBMC) are from AllCells; host or cells: cryopreserved PBMC
Procedure, shortened: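 Thawed human PBMC rested overnight in IMDM/10% FBS, then got compound for 3 hrs before a 10 min cytokine pulse: 1 ng/mL IL-4 for pSTAT6, 10 ng/mL IL-6 for pSTAT3. Lysates went to MSD sandwich capture on total STAT6 or STAT3 with phospho-specific detection. IC50 came from background-subtracted, DMSO-normalized signal.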

pY641-STAT6 in PBMC = biological target: T2, pY641-STAT6 in PBMC (Homo sapiens, UniProt P42226); assay: MSD-pSTAT-PBMC Assay (pSTAT6, IL-4 stimulated); format: cell-based; conditions: compound 3 hrs, then 1 ng/mL IL-4 for 10 min
T2 construct: Cryopreserved Peripheral Blood Mononuclear Cells (PBMC) are from AllCells; host or cells: cryopreserved PBMC
T2 sequence (P42226 1-847): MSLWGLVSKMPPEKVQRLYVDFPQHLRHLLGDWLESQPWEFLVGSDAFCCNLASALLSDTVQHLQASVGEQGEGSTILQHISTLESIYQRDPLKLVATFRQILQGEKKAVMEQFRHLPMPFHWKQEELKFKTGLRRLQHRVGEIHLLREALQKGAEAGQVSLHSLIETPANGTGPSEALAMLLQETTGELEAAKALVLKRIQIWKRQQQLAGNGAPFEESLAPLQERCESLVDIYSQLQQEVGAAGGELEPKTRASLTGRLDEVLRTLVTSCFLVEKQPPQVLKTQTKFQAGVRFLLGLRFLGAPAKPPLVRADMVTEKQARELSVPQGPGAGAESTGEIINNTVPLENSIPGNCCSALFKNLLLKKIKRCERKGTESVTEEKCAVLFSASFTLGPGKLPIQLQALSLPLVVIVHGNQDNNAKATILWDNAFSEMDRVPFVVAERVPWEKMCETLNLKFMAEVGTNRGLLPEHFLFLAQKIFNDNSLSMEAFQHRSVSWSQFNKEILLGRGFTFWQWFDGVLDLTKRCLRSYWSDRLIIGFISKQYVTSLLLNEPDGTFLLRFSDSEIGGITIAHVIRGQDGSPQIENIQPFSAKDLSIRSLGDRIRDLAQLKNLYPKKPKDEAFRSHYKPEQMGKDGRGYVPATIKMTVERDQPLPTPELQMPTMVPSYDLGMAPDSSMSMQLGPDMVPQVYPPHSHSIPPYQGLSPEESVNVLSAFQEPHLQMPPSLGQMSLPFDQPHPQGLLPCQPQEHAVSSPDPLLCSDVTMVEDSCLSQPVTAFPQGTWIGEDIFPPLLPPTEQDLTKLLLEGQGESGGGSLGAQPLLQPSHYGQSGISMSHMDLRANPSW
Procedure, shortened: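 MSD electrochemiluminescence read-out: total STAT captured, probed with anti-pY641-STAT6 or anti-pY705-STAT3. Human PBMC, 3 h compound pretreatment, 10 min stimulation (IL-4 1 ng/mL or IL-6 10 ng/mL). Unstimulated signal subtracted, DMSO-normalized, variable-slope IC50.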

[1] = PBMC, Table 115, read-out: STAT6
[2] = PBMC, Table 1114, read-out: pSTAT6

T1 sequence (P40763 whole entry): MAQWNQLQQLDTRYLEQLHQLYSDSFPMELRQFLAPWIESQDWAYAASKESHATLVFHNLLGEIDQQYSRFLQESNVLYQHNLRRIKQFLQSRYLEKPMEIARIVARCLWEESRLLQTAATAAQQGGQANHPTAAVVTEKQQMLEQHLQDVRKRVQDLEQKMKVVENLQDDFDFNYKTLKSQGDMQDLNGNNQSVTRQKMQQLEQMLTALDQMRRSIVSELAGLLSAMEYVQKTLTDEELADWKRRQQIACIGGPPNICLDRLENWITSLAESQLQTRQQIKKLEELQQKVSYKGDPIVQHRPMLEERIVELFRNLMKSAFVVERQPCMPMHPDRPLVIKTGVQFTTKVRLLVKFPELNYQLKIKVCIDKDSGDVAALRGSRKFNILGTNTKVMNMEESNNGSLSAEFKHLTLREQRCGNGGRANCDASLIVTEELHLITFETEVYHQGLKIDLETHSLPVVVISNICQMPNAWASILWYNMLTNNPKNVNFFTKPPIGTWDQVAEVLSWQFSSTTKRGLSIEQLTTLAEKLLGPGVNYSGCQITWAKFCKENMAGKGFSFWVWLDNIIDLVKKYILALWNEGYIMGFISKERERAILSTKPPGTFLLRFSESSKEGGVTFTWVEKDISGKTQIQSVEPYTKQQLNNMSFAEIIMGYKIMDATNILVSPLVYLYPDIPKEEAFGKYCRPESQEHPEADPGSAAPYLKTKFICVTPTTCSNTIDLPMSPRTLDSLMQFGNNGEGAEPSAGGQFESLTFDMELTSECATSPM

| pIC50 (pY705-STAT3 in PBMC; Table 115, read-out: STAT3) | pIC50 (pY641-STAT6 in PBMC; [1]) | pIC50 (pY705-STAT3 in PBMC; Table 1114, read-out: pSTAT3) | pIC50 (pY641-STAT6 in PBMC; [2]) | Compound | also measured |
| --- | --- | --- | --- | --- | --- |
| < 5.52 | 6.00 to 7.00 |  |  | CC(C)CC(=O)SCCOP(=O)(OCCSC(=O)CC(C)C)C(F)(F)c1ccc2sc(C(=O)N[C@H]3CCCC[C@H]4CC[C@@H](C(=O)N5CC(c6ccccc6)CC56CC6)N4C3=O)cc2c1 (stereo partly drawn) [Compound 1082, S,S′-((((difluoro(2-(((3S,6S,10aS)-5-oxo-3-(6-phenyl-4-azaspiro[2.4]heptane-4-carbonyl)decahydropyrrolo[1,2-a]azocin-6-yl)carbamoyl)benzo [b]thiophen-5-yl)methyl)phosphoryl)bis(oxy))bis(ethane-2,1-diyl)) bis(3-methylbutanethioate)] |  |
| 5.52 to 6.00 | 6.00 to 7.00 |  |  | COCC(=O)SCCOP(=O)(OCCSC(=O)COC)C(F)(F)c1ccc2sc(C(=O)N[C@H]3CCCC[C@H]4CC[C@@H](C(=O)N5C[C@@H](C#N)[C@H](c6cc[nH]c(=O)c6)C5)N4C3=O)cc2c1 (single isomer, unassigned) [Compound 1010] |  |
|  |  | > 7.00 | < 5.52 | CC(C)(C)C(=O)SCCOP(=O)(OCCSC(=O)C(C)(C)C)C(F)(F)c1ccc2sc(C(=O)N[C@H]3CC4(CC[C@H]5CC[C@@H](C(=O)N6CC(c7cccnc7)C6)N5C3=O)CC4)cc2c1 [Compound 130, S,S′-((((difluoro(2-(((3′S,6′S,10a′S)-5′-oxo-3′-(3-(pyridin-3-yl)azetidine-1-carbonyl)octahydro-5′H-spiro [cyclopropane-1,8′-pyrrolo[1,2-a]azocin]-6′-yl)carbamoyl)benzo[b]thiophen-5-yl)methyl)phosphoryl)bis (oxy))bis (ethane-2,1-diyl)) bis(2,2-dimethylpropane-thioate)] |  |
|  |  | 6.00 to 7.00 | 6.00 to 7.00 | CN(C(=O)[C@@H]1CC[C@@H]2C/C=C\C[C@H](NC(=O)c3cc4cc(C(F)(F)P(=O)(OCOC(=O)C(C)(C)C)OCOC(=O)C(C)(C)C)ccc4[nH]3)C(=O)N21)c1ccccc1 [Compound 141, (((difluoro(2-(((3S,6S,10aR,Z)-3-(methyl (phenyl)carbamoyl)-5-oxo-1,2,3,5,6,7,10,10a-octahydropyrrolo [1,2-a]azocin-6-yl)carbamoyl)-1H-indol-5-yl)methyl)phosphoryl)bis (oxy))bis (methylene) bis(2,2-dimethylpropanoate)] |  |

| Compound | pIC50 (pY705-STAT3 in PBMC; Table 115, read-out: STAT3) | pIC50 (pY641-STAT6 in PBMC; [1]) | pIC50 (pY705-STAT3 in PBMC; Table 1114, read-out: pSTAT3) | pIC50 (pY641-STAT6 in PBMC; [2]) | also measured |
| --- | --- | --- | --- | --- | --- |
| CCCC(=O)SCCOP(=O)(Oc1cccc(C#N)c1)C(F)(F)c1ccc2sc(C(=O)N[C@H]3CCCC[C@H]4CC[C@@H](C(=O)N5C[C@@H](C#N)[C@H](c6ccccc6)C5)N4C3=O)cc2c1 (single isomer, unassigned) [Compound 138, S-(2-((((2-(((3S,6S,10aS)-3-((3S,4R or 3R,4S)-3-cyano-4-phenylpyrrolidine-1-carbonyl)-5-oxodecahydro-pyrrolo[1,2-a]azocin-6-yl)carbamoyl)benzo[b]thiophen-5-yl)difluoromethyl) (3-cyanophenoxy)phosphoryl)oxy)ethyl)butane-thioate] |  |  | < 5.52 |  | pIC50 (pY641-STAT6 in PBMC; pSTAT6, PBMC, Table 1114): 6.00 to 7.00 |
| CCCOC(=O)[C@H](C)NP(=O)(Oc1ccccc1)[C@@H](F)c1ccc2sc(C(=O)N[C@H]3CCCC[C@H]4CC[C@@H](C(=O)N5C[C@H](c6ccccc6)[C@@H](C#N)C56CC6)N4C3=O)cc2c1 (stereo partly drawn) [Compound 381, propyl (((R)-(2-(((3S,6S,10aS)-3-((6S,7R)-7-cyano-6-phenyl-4-azaspiro[2.4]heptane-4-carbonyl)-5-oxodecahydropyrrolo [1,2-a]azocin-6-yl)carbamoyl)benzo [b]thiophen-5-yl)fluoromethyl) (phenoxy)phosphoryl)-L-alaninate] | < 5.52 |  |  |  | pIC50 (pY641-STAT6 in PBMC; STAT6, PBMC, Table 115): > 7.00 |
